# Test results reported in article PMC10649961, “Novel Mitochondria-Targeted Amphiphilic Aminophosphonium Salts and Lipids Nanoparticles: Synthesis, Antitumor Activity and Toxicity” (Nanomaterials, 2023).
# Columns and labels:
# [1] = tested on: human volunteer donor erythrocytes; assay: Hemolytic assay; assay type: cell-based; conditions: hemolysis in 50% of human erythrocytes, 1 h, 37 °C
# Description: The hemolytic activity of Aminophosphonium Salts was assessed by comparing the optical density of a solution containing the test compound with the optical density of blood at 100% hemolysis. Healthy human volunteer donor erythrocytes were used as the object of the study. Red blood cells with EDTA (1.8 mg/mL) were washed three times with saline (0.9% NaCl), centrifuged for 10 min at 800× g rpm, and resuspended in saline (0.9% NaCl) to a concentration of 10%. The tested concentrations (0.1–100 μM) were prepared in physiological solution (0.9% NaCl) (with the addition of 5% DMSO). Compounds at the appropriate dilution (450 μL) were added to 50 μL of a 10% red blood cell suspension. Samples were incubated for 1 h at 37 °C and centrifuged for 10 min at 2000 rpm. The release of hemoglobin was controlled by measuring the optical density of the supernatant on an InvitroLogic microplate reader at λ = 540 nm. A control sample corresponding to zero hemolysis (blank experiment) was prepared by adding 50 μL of a 10% red blood cell suspension to 450 μL of saline (0.9% NaCl). A control sample corresponding to 100% hemolysis was prepared by adding 50 μL of a 10% red blood cell suspension to 450 μL of distilled water. Blood was taken at the Clinic of the Federal Research Center “Kazan Scientific Center of the Russian Academy of Sciences” from healthy donors with their personal consent.
# [2] = tested on: mice of the CD-1 line; assay: In vivo acute toxicity, single intraperitoneal injection; conditions: for acute toxicity class: according to the classification [105], parenteral administration; for onset of animal death after administration: doses of LD100
# Description: (§1) The study of acute toxicity was performed on males of outbred white mice of the CD-1 line at the age of 2–3 months, weighing 20–30 g. The total number of mice participating in the experiment was 300. Mice were obtained from the Research and Production Enterprise Laboratory Animal Farm based at the Branch of Shemyakin and Ovchinnikov Institute of Bioorganic Chemistry of the Russian Academy of Sciences (Pushchino, Russia). The animals were kept in accordance with in standard conditions in a vivarium with 12 h of daylight and free access to food and water. The animals were fed complete feed made according to specifications (protein 22%, fiber 4% max., fat 5% max, ash 9% max, humidity 13.5% max, caloric value 295 kcal/100 g). The studies were conducted with a single parenteral–intraperitoneal (intra-peritoneal) injection, according to the method.
# (§2) The substances were introduced in a sterile saline DMSO (40% vol.) solution. Solutions of the substances were prepared immediately before administration. The total volume of the injected liquid was 0.1 mL/10 g of animal weight. As a control, a group of mice was administered under similar conditions an equivalent amount (0.1 mL/10 g, or 10 mL/kg) of a solvent—40% DMSO on sterile saline solution. The substances were administered in doses ranging from 1 to 100 mg/kg; there were six animals in each group. To assess acute toxicity, the animals were monitored 14 days after administration of the substance, assessing their general condition and recording deaths.
# (§3) The study of the acute toxicity parameters of six aminophosphonium salts 4a, 4b, 4d, 5a, 5b, and 6b was performed on male outbreed white mice of the CD-1 line. Acute toxicity was determined with a single parenteral (intraperitoneal) administration in sterile saline/DMSO (40% vol.) solution at doses from 1 to 100 mg/kg. To assess acute toxicity, the animals were monitored for 14 days after the introduction of substances, assessing their general condition and recording deaths. Next, lethal doses LD50, LD0, LD16, LD84, and LD100 were calculated using the Probit analysis method. LD0, LD16, LD84, and LD100 are given in Supplementary Material (Table S1).
# [3] = as above; parameters: species or system mice; conditions: male, CD-1, mouse, in vivo, ip, male CD-1 mice, single intraperitoneal administration, 14 days, Probit analysis
# Description: as §1, §2, §3
# [4] = tested on: HuTu 80 cells; assay: Cell apoptosis assay, Annexin V/propidium iodide flow cytometry; assay type: cell-based, human; conditions: HuTu 80, 48-h incubation, IC50/2 and IC50
# Description: HuTu 80 cells at a rate of 1 × 10^6 cells/well were seeded into six-well plates and incubated until a monolayer formed for approximately 24 h. After […] of incubation, various concentrations of compounds 4b, 5b, 6a, and 8 were added to the wells.
# Cells were detached with a trypsin-versene solution (1:3), suspended in PBS, and collected at 2000 rpm for 5 min. Cells were then washed twice with ice-cold PBS, followed by resuspension in binding buffer. Next, the samples were incubated with 5 μL of Annexin V Alexa Fluor 647 (Sigma-Aldrich, St. Louis, MO, USA) and 5 μL of propidium iodide for 15 min at room temperature in the dark. Finally, the cells were analyzed by flow cytometry in the Red-R (661/15 nm)—annexin and Near IR-B (785/70 nm)—PI channels on a Guava easyCyte flow cytometer (Merck Millipore, Burlington, MA, USA) for 1 h. The experiments were repeated three times.
# [5] = tested on: HuTu 80 cells; assay: Intracellular ROS, CellROX Deep Red flow cytometry; assay type: cell-based, human; conditions: HuTu 80, IC50/2 and IC50, compared with the control
# Description: ROS generation was investigated using a flow cytometry assay and the CellROX® Deep Red flow cytometry kit. For this, HuTu 80 cells were harvested at 2000 rpm for 5 min and then washed twice with ice-cold PBS, followed by resuspension in 0.1 mL of medium without FBS, to which was added 0.2 μL of CellROX® Deep Red and incubated at 37 °C for 30 min. After three washes, cells were suspended in PBS, and the cell production of ROS was immediately monitored using a flow cytometer (Guava easy Cyte).
# [6] = tested on: HuTu 80 cells; assay: Mitochondrial membrane potential, JC-10 flow cytometry; assay type: cell-based, human; conditions: HuTu 80, 48-h treatment
# Description: The cells are prepared as in the Cell Apoptosis Assay section. Cells were detached with trypsin/versene solution (1:3), suspended in PBS, collected at 2000 rpm for 5 min, then washed twice with ice-cold PBS, followed by resuspension in JC-10 (10 μg/mL) and incubation at 37 °C for 10 min. The cells were then washed three times and suspended in PBS, and JC-10 fluorescence was observed by flow cytometry (Guava Easy Cyte).
# Most forms of apoptosis in mammals are realized not through cell death receptors but through the mitochondrial pathway. In this case, the outer membrane of the mitochondria breaks, and soluble proteins of the intermembrane space enter the cytoplasm. The permeability of the outer membrane of mitochondria is a finely regulated process, and its increase is a key event in triggering apoptosis. Induction of apoptosis by compounds 4b, 5b, 6a, and 8 at concentrations of IC50/2 and IC50 via the mitochondrial pathway on the HuTu 80 cell line was studied by flow cytometry using the fluorescent dye JC-10 from the Mitochondria Membrane Potential Kit.
# [7] = tested on: PC3; assay: cells; conditions: Homo sapiens, PC-3, 48 h, read-out: Cytotoxic Effects (IC50), PC3, MTT assay, 48 h
SMILES,HC50 [1] [µM],"death in animals ([2]; CD-1 mice, i.p., dose of 150 mg/kg) [%]","time to death ([2]; CD-1 mice, i.p., doses of 200 and 400 mg/kg) [min]",acute toxicity class [2],LD50 at 14 days [3] [mg/kg],apoptosis-inducing effect (in words) [4],"ROS production, CellROX Deep Red fluorescence (in words) [5]","onset of animal death after administration ([2]; CD-1 mice, i.p.) [h]",effect on mitochondrial membrane potential (in words) [6],IC50 [7] [µM],"LD50 ([2]; male CD-1 mice, single intraperitoneal administration, 14 days, Probit analysis)"
"CCCCCCCC[P+](c1ccccc1)(c1ccccc1)N(CC)CC [6b, (Diethylamino)(octyl)diphenylphosphonium iodide]",>100,100,≤ 10,moderately toxic,102,,,,,,
"CCCCCCCC[P+](c1ccccc1)(N(CC)CC)N(CC)CC [5b, Bis(diethylamino)(octyl)(phenyl)phosphonium iodide]",>100,,,moderately toxic,27.9,dose-dependent apoptosis,increase in the fluorescence intensity,1 to 2,decrease in the mitochondrial membrane potential,11.4 ± 0.9,
"CCCCCCCC[P+](N(CC)CC)(N(CC)CC)N(CC)CC [4b, Tris(diethylamino)(octyl)phosphonium iodide]",>100,,,moderately toxic,43.4,dose-dependent apoptosis,increase in the fluorescence intensity,1 to 2,decrease in the mitochondrial membrane potential,11.6 ± 0.9,
"CCCCCC[P+](c1ccccc1)(c1ccccc1)N(CC)CC [6a, (Diethylamino)(hexyl)diphenylphosphonium iodide]",> 100,,,,,number of necrotic cells prevailed,increase in the fluorescence intensity,,decrease in the mitochondrial membrane potential,4 ± 0.3,
"CCCCCCCC[P+](c1ccccc1)(c1ccccc1)c1ccccc1 [compound 8, Octyltriphenylphosphonium iodide, reference compound]",,,,,,more active in the early stage of apoptosis,increase in the fluorescence intensity,,decrease in the mitochondrial membrane potential,0.4 ± 0.03,
"CCCCCCCCCC[P+](N(CC)CC)(N(CC)CC)N(CC)CC [4d, Decyltris(diethylamino)phosphonium iodide]",,,,highly toxic,6.9,,,1 to 2,,7.3 ± 0.6,5.9 (3.7÷7.6) mg/kg
